# From patent publication US6211364A, “Process for preparing indane-like compounds” (Eli Lilly and Company, priority 1999, dated 2001)
# Where two headings read alike, the source gives them in different places.
# Experiments:
# human m4 receptors = target: T1, human m4 receptors (Homo sapiens, UniProt P08173); assay: M4 assay: cyclic AMP accumulation/production in pertussis toxin-treated CHO m4 cells (% maximum stimulation compared to oxotremorine-M); format: cell-based; details: read-out: % Maximum Stimulation Compared to Oxotremorine-M
# T1 construct: expressed in transfected cells; host or cells: CHO K1
# Method: II. M4 muscarinic receptor […] assay:
# Cyclic AMP Accumulation in Pertussis Toxin-Treated CHO m4 Cells.
# CHO K1 cells transfected with human m4 receptors were grown to near confluency in T-150 flasks using Dulbecco's Modified Eagle Medium (DMEM) containing 10% fetal bovine serum. Cells were detached with 0.05% trypsin, 0.53 mM EDTA, and were suspended in medium containing 100 ng/ml pertussis toxin. Cells were plated at 30,000 cells per well into 96 well plates. Eighteen to twenty hours later the medium was removed and the cells were washed with serum-free medium. Attached cells were incubated at 37_C for one hour after addition of […] of serum free DMEM containing 1 mM 3-isobutyl-1-methylxanthine and 1 mM forskolin plus or minus drugs being tested. Incubations were terminated with […] per well of serum free DMEM containing 0.3%, triton-X-100. After stopping incubations the plates were allowed to sit for 20 minutes to extract cAMP and samples were then diluted 2.5-fold and were assayed using the scintillation proximity assay of Amersham (Arlington Heights, Ill.).
# Representative results from the M4 assay are as follows:
# Stimulation of cyclic AMP Production in CHO-m4 cells.
# muscarinic receptor = muscarinic receptor in the CNS, cited from earlier work
# [1] = system: M1 -site muscarinic receptors; details: M1 -site versus M2 -sites; cited from earlier work
# T1 sequence (P08173 whole entry): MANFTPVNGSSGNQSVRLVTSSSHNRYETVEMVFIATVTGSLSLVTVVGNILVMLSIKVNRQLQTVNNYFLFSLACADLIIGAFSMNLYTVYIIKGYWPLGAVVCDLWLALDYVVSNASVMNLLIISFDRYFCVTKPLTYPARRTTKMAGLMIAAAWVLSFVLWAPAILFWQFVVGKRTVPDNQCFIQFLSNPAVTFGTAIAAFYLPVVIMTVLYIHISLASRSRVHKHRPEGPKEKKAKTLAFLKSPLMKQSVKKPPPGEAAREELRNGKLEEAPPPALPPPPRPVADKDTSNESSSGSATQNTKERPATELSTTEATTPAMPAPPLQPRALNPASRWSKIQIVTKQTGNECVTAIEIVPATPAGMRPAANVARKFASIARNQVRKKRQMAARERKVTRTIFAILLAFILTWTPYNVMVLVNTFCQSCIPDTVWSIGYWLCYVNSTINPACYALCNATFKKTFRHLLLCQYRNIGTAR
Compound,Emax (human m4 receptors) [%],also measured
O=C(N[C@H]1c2cc(N=CN3CCCC3)ccc2C[C@@H]1O)C1CCCCC1 (relative stereo) [Compound 11],34,
O=C(N[C@H]1c2cc(N=CN3CCCC3)ccc2C[C@@H]1O)c1cccnc1Cl (relative stereo) [Compound 12],26,
N#Cc1ccc(C(=O)N[C@H]2c3cc(N=CN4CCCC4)ccc3C[C@@H]2O)cc1 (relative stereo) [Compound 13],< 20,
O=C(N[C@H]1c2cc(N=CN3CCCC3)ccc2C[C@@H]1O)c1cc(Cl)cc(Cl)c1 (relative stereo) [Compound 14],100,
O=C(N[C@H]1c2cc(N=CN3CCCC3)ccc2C[C@@H]1O)c1cccc2ccccc12 (relative stereo) [Compound 15],76,
O=C(N[C@H]1c2cc(N=CN3CCCC3)ccc2C[C@@H]1O)c1ccc2ccccc2c1 (relative stereo) [Compound 17],56,
O=C(N[C@H]1c2cc(N=CN3CCCC3)ccc2C[C@@H]1O)c1ccc(C(F)(F)F)cc1 (relative stereo) [Compound 18],61,
O=C(N[C@H]1c2cc(N=CN3CCCC3)ccc2C[C@@H]1O)C(F)(F)F (relative stereo) [Compound 19],< 20,
O=C(N[C@H]1c2cc(N=CN3CCCC3)ccc2C[C@@H]1O)c1ccc([N+](=O)[O-])cc1Cl (relative stereo) [Compound 20],69,
O=C(N[C@H]1c2cc(N=CN3CCCC3)ccc2C[C@@H]1O)c1cccs1 (relative stereo) [Compound 21],23,
O=C(N[C@H]1c2cc(N=CN3CCCC3)ccc2C[C@@H]1O)c1cc(F)cc(F)c1 (relative stereo) [Compound 23],< 20,
O=C(N[C@H]1c2cc(N=CN3CCCC3)ccc2C[C@@H]1O)c1cccc(F)c1F (relative stereo) [Compound 24],22,
O=C(N[C@H]1c2cc(N=CN3CCCC3)ccc2C[C@@H]1O)c1cccc([N+](=O)[O-])c1 (relative stereo) [Compound 25],43,
CCCc1ccc(C(=O)N[C@H]2c3cc(N=CN4CCCC4)ccc3C[C@@H]2O)cc1 (relative stereo) [Compound 26],< 20,
Cc1cc(C)c(C(=O)N[C@H]2c3cc(N=CN4CCCC4)ccc3C[C@@H]2O)c(C)c1 (relative stereo) [Compound 27],< 20,
O=C(CSc1ccccc1)N[C@H]1c2cc(N=CN3CCCC3)ccc2C[C@@H]1O (relative stereo) [Compound 28],< 20,
O=C(N[C@H]1c2cc(N=CN3CCCC3)ccc2C[C@@H]1O)c1c(F)ccc(F)c1F (relative stereo) [Compound 29],< 20,
O=C(N[C@H]1c2cc(N=CN3CCCC3)ccc2C[C@@H]1O)c1cccc(F)c1 (relative stereo) [Compound 30],< 20,
O=C(N[C@H]1c2cc(N=CN3CCCC3)ccc2C[C@@H]1O)c1cccc(Cl)c1Cl (relative stereo) [Compound 31],45,
O=C(N[C@H]1c2cc(N=CN3CCCC3)ccc2C[C@@H]1O)c1cc(F)ccc1F (relative stereo) [Compound 32],< 20,

Compound,Emax (human m4 receptors) [%],also measured
O=C(N[C@H]1c2cc(N=CN3CCCC3)ccc2C[C@@H]1O)c1ccc(F)c(F)c1F (relative stereo) [Compound 33],45,
COc1cccc(C(=O)N[C@H]2c3cc(N=CN4CCCC4)ccc3C[C@@H]2O)c1 (relative stereo) [Compound 34],45,
O=C(N[C@H]1c2cc(N=CN3CCCC3)ccc2C[C@@H]1O)c1ccccc1C(F)(F)F (relative stereo) [Compound 35],65,
COc1cc(OC)cc(C(=O)N[C@H]2c3cc(N=CN4CCCC4)ccc3C[C@@H]2O)c1 (relative stereo) [Compound 36],< 20,
Cc1cccc(C(=O)N[C@H]2c3cc(N=CN4CCCC4)ccc3C[C@@H]2O)c1 (relative stereo) [Compound 37],76,
N#Cc1cccc(C(=O)N[C@H]2c3cc(N=CN4CCCC4)ccc3C[C@@H]2O)c1 (relative stereo) [Compound 38],< 20,
O=C(N[C@H]1c2cc(N=CN3CCCC3)ccc2C[C@@H]1O)c1cc(F)c(F)c(F)c1 (relative stereo) [Compound 39],43,
O=C(N[C@@H]1c2cc(N=CN3CCCC3)ccc2C[C@H]1O)c1cc(F)c(F)c(F)c1F (relative stereo) [Compound 40],96,
O=C(N[C@@H]1c2cc(N=CN3CCCC3)ccc2C[C@H]1O)C1CCC1 (relative stereo) [Compound 41],< 20,
O=C(N[C@@H]1c2cc(N=CN3CCCC3)ccc2C[C@H]1O)c1ccccc1Cl (relative stereo) [Compound 44],41,
CCCCc1ccc(C(=O)N[C@@H]2c3cc(N=CN4CCCC4)ccc3C[C@H]2O)cc1 (relative stereo) [Compound 45],< 20,
O=C(N[C@@H]1c2cc(N=CN3CCCC3)ccc2C[C@H]1O)c1c(Cl)cccc1Cl (relative stereo) [Compound 46],154,
O=C(N[C@@H]1c2cc(N=CN3CCCC3)ccc2C[C@H]1O)c1c(Cl)cc(Cl)cc1Cl (relative stereo) [Compound 47],< 20,
CN(C)C=Nc1ccc2c(c1)[C@@H](NC(=O)c1ccccc1)[C@H](O)C2 (relative stereo) [Compound 57],5,
CN(C)C=Nc1ccc2c(c1)[C@@H](NC(=O)c1cc(Cl)cc(Cl)c1)[C@H](O)C2 (relative stereo) [Compound 58],74,
CCCCOc1ccc(C(=O)N[C@@H]2c3cc(N=CN(C)C)ccc3C[C@H]2O)cc1 (relative stereo) [Compound 59],22,
CN(C)C=Nc1ccc2c(c1)[C@@H](NC(=O)c1cccc(C#N)c1)[C@H](O)C2 (relative stereo) [Compound 61],39,
CN(C)C=Nc1ccc2c(c1)[C@@H](NC(=O)C1CCCC1)[C@H](O)C2 (relative stereo) [Compound 62],27,
CN(C)C=Nc1ccc2c(c1)[C@@H](NC(=O)c1ccc3ccccc3c1)[C@H](O)C2 (relative stereo) [Compound 63],13,
CN(C)C=Nc1ccc2c(c1)[C@@H](NC(=O)c1cc(F)cc(C(F)(F)F)c1)[C@H](O)C2 (relative stereo) [Compound 64],52,

Compound,Emax (human m4 receptors) [%],also measured
CN(C)C=Nc1ccc2c(c1)[C@@H](NC(=O)c1cc(F)c(F)c(F)c1)[C@H](O)C2 (relative stereo) [Compound 65],30,
CN(C)C=Nc1ccc2c(c1)[C@@H](NC(=O)C(F)(F)F)[C@H](O)C2 (relative stereo) [Compound 66],0,
CCc1ccc(C(=O)N[C@@H]2c3cc(N=CN(C)C)ccc3C[C@H]2O)cc1 (relative stereo) [Compound 67],7,
CN(C)C=Nc1ccc2c(c1)[C@@H](NC(=O)c1sccc1Cl)[C@H](O)C2 (relative stereo) [Compound 68],0,
CN(C)C=Nc1ccc2c(c1)[C@@H](NC(=O)c1cc3ccccc3s1)[C@H](O)C2 (relative stereo) [Compound 69],14,
CCCCc1ccc(C(=O)N[C@@H]2c3cc(N=CN(C)C)ccc3C[C@H]2O)cc1 (relative stereo) [Compound 70],18,
CN(C)C=Nc1ccc2c(c1)[C@@H](NC(=O)c1cccc3ccccc13)[C@H](O)C2 (relative stereo) [Compound 71],95,
CN(C)C=Nc1ccc2c(c1)[C@@H](NC(=O)c1cccnc1Cl)[C@H](O)C2 (relative stereo) [Compound 73],11,
CN(C)C=Nc1ccc2c(c1)[C@@H](NC(=O)c1ccc(Cl)nc1)[C@H](O)C2 (relative stereo) [Compound 74],8,
CN(C)C=Nc1ccc2c(c1)[C@@H](NC(=O)c1ccc(C(F)(F)F)cc1)[C@H](O)C2 (relative stereo) [Compound 75],6,
CC(=Nc1ccc2c(c1)[C@@H](NC(=O)c1ccc(Cl)c(Cl)c1)[C@H](O)C2)N(C)C (relative stereo) [Compound 76],130,
O=C(N[C@@H]1c2cc(N=CN3CCCCC3)ccc2C[C@H]1O)c1ccc(Cl)c(Cl)c1 (relative stereo) [Compound 77],214,
O=C(N[C@@H]1c2cc(N=CN3CCCCC3)ccc2C[C@H]1O)c1cccc(Cl)c1Cl (relative stereo) [Compound 88],52,
O=C(N[C@@H]1c2cc(N=CN3CCCCC3)ccc2C[C@H]1O)c1cc(Cl)cc(Cl)c1 (relative stereo) [Compound 97],36,
O=C(N[C@@H]1c2cc(N=CN3CCCCC3)ccc2C[C@H]1O)c1cc(F)cc(F)c1 (relative stereo) [Compound 98],73,
C[N+](C)(C)CC#CCN1CCCC1=O [3 H-Oxo],,"Kd (muscarinic receptor; high affinity site, read-out: affinity of 3H-Oxo, first of three labeled sites): 1.8 nM; Kd (muscarinic receptor; medium affinity site, read-out: affinity of 3H-Oxo, second of three labeled sites): 20 nM; Kd (muscarinic receptor; third site, not determined under the present conditions, read-out: affinity of 3H-Oxo, third of three labeled sites): 3000 nM"
CN(C)C=Nc1ccc2c(c1)C(NS(=O)(=O)c1ccc(Cl)c(Cl)c1)C(O)C2 (stereo not drawn) [Compound 72],4,
"CN1CCN(CC(=O)N2c3ccccc3C(=O)Nc3cccnc32)CC1 [Pirenzepine, pirenzepine, [N-methyl-^3 H]]",,selectivity of pirenzepine binding for muscarinic receptor subtype [1]: selective for M1 -sites
